Results taken from patent EP1614420A2, “Treatment of hypertension, angina and other disorders using (-) amlodipine” (Sepracor Inc., priority 1992, dated 1993).

How the values were obtained:
β-adrenergic = conditions: L-form versus D-enantiomer; cited from earlier work
[1] = test system: potassium-depolarized rat aorta; conditions: in vitro; cited from earlier work
[2] = test system: K+-depolarized isolated guinea pig ileal segment; test: Cardiovascular calcium antagonism, guinea pig ileum (in vitro); assay type: cell-based; conditions: inhibition of contractile response to added calcium (20 µg/ml of CaCl), Ca-free physiological salt solution, 37° C, reference agents; for IC100: Cavia porcellus, read-out: ED100
Excerpt: Cardiovascular Calcium Antagonism, Guinea Pig Ileum (in vitro):

Row | Structure (SMILES) | ED100 [2] | IC100 [2] | further results
1 | CC(C)NC[C@H](O)COc1cccc2ccccc12 |  |  | times more potent than the D-enantiomer (β-adrenergic): 100 times
2 | CCOC(=O)C1=C(COCCN)NC(C)=C(C(=O)OC)C1c1ccccc1Cl (single isomer, unassigned; isomer 3) [(-) isomer, 3-ethyl 5-methyl (-)-2-[(2-aminoethoxy)methyl]-4-(2-chlorophenyl)-1,4-dihydro-6-methyl-3,5-pyridine-dicarboxylate] |  |  | activity relative to the racemic mixture in antagonizing calcium-induced constriction [1]: twice as active as the racemic mixture
3 | C(=C\c1ccccc1)/CN1CCN(C(c2ccccc2)c2ccccc2)CC1 [cinnazrizine] | 1 µg/mL |  | 
4 | CN1CCC(=C2c3ccccc3C=Cc3ccccc32)CC1 [cyproheptadine] |  | 0.025 µg/mL | 
5 | CN(C)CCOC(c1ccccc1)c1ccccc1 [diphenhydramine] |  | 1 µg/mL | 
6 | Fc1ccc(C(c2ccc(F)cc2)N2CCN(C/C=C/c3ccccc3)CC2)cc1 [flunarizine] |  | 0.1 µg/mL | 
7 | CC(C)[N+]1(C)[C@@H]2CC[C@H]1CC(OC(=O)C(CO)c1ccccc1)C2.[Br-] (stereo partly shown) [ipratropium bromide] | >2 µg/mL |  | 
8 | CC(COc1ccccc1)NC(C)C(O)c1ccc(O)cc1 (stereo not shown) [isoxuprine] | 4 µg/mL |  | 
9 | COc1ccc(Cc2nccc3cc(OC)c(OC)cc23)cc1OC [papaverine] |  | 4 µg/mL | 
10 | CC(CN1c2ccccc2Sc2ccccc21)N(C)C (stereo not shown) [promethazine] |  | 0.25 µg/mL | 
